Test results reported in publication PMC8379256, “A xanthene derivative, DS20060511, attenuates glucose intolerance by inducing skeletal muscle-specific GLUT4 translocation in mice” (Communications Biology, 2021).
“And” between values parts separate entries of the source, which are not always exact repeats. Identical values can stand only once.

Assays:
[1] = system: C57BL/6 mice; test: Oral glucose tolerance test (GTT) in C57BL/6 mice: blood glucose and plasma insulin; format: in vivo, mouse; parameters: Blood glucose AUC: unit not given here
Description: Fig. 2 Treatment with DS20060511 decreases the blood glucose levels via inducing GLUT4 translocation and increasing skeletal muscle glucose uptake. a, b Blood glucose levels after treatment with DS20060511 (30 mg kg^−1) in C57BL/6 mice that had received continued access to food (a) and mice that had been denied access to food overnight (b) (n = 8). Values shown are means ± SEM. **P < 0.01 vs. 0 min by one-way ANOVA followed by Dunnett’s test. c Blood glucose and plasma insulin levels during oral GTT in the C57BL/6 mice (n = 5–6). The mice received oral administration of vehicle or DS20060511 at the indicated dose, 15 min prior to glucose administration (1.5 g kg^−1). Values shown are means ± SEM. *P < 0.05, **P < 0.01 vs. vehicle by one-way ANOVA followed by Williams’ test. d [^3H]-2-DG uptake in the soleus muscle, gastrocnemius muscle (Gastro.), heart, and white adipose tissue (WAT) at 60 min during the intraperitoneal GTT in the C57BL/6 mice (n = 3). The mice received oral administration of vehicle or DS20060511 (30 mg kg^−1), 15 min prior to glucose administration (1 g kg^−1 glucose containing [^3H]-2-DG). […] Uncropped blots for e can be found in Supplementary Fig. 6.
Mice that had been denied access to food overnight received the indicated oral dose of DS20060511 or vehicle 15 min prior to the glucose load (1.5 g kg^−1, except for eNOS-knockout mice, which received 3.0 g kg^−1). Then, after the oral glucose load, the blood glucose levels were measured using Glutest Every in samples obtained from the tail vein at the indicated timepoints. Plasma insulin concentrations were also measured with an ELISA kit (Morinaga Institute of Biological Science, Yokohama, Japan) in blood samples collected from the tail vein at the indicated timepoints.

[2] = system: human liver microsomal fraction; test: Metabolic stability in human liver microsomes; format: in vitro ADME; details: after 1 h incubation, 1 μM
Description: C57BL/6 mice that had been denied access to food overnight received the indicated oral dose of DS20060511, and blood samples were collected from the tail vein at the indicated timepoints. Plasma samples for quantitation of DS20060511 were prepared by centrifugation. Another group of mice received oral administration DS20060511 (30 mg kg^−1) and euthanized 75 min later. The soleus and gastrocnemius muscles, heart, and inguinal WAT were removed and homogenized in water (5 vol.) for quantitation of the drug concentrations. Plasma samples and tissue homogenates were analyzed by LC-MS/MS (Nexera MP System, SHIMADZU, Kyoto, Japan; API4000 System, SCIEX, Framingham, MA). The tissue concentrations of the compound were calculated by assuming the volume of 1 g of tissue is 1 mL. Evaluation of the metabolic stability of the compound to mouse and human cytochrome P450 (CYP) was conducted as follows. […] The results were expressed as the amount of compound remaining (expressed as a percentage), based on the ratio of the relative area to that in the control (without reaction).

[3] = system: AMPK; test: AMPK (Thr172) phosphorylation in isolated muscles with or without electrical stimulation; parameters: species or system mouse; details: isolated skeletal muscle; 10 μM DS20060511; Fig. 6b

COc1ccc2c(C)c(C(=O)O)ccc2c1C1C2=C(CC(C)(C)CC2=O)OC2=C1C(=O)CC(C)(C)C2 [DS20060511]
insulin secretion during oral GTT (in words) ([1]; all DS20060511-treated groups, Fig. 2c): significantly decreased | Blood glucose AUC ([1]; oral GTT, 1 mg/kg): 366 and 401 and 377 and 335 and 390 and 419 | Plasma insulin AUC ([1]; oral GTT, 1 mg/kg): 0.29 and 0.49 and 0.32 and 0.27 and 0.43 | Blood glucose ([1]; oral GTT, 1 mg/kg po at -15 min, -15 min, 1 mg/kg): 83 mg/dL and 81 mg/dL and 91 mg/dL and 77 mg/dL and 94 mg/dL and 72 mg/dL | Blood glucose ([1]; oral GTT, 1 mg/kg, 0 min): 104 mg/dL and 115 mg/dL and 92 mg/dL and 106 mg/dL and 89 mg/dL | Blood glucose ([1]; oral GTT, 1 mg/kg, 15 min): 270 mg/dL and 311 mg/dL and 217 mg/dL and 301 mg/dL | Blood glucose ([1]; oral GTT, 1 mg/kg, 30 min): 242 mg/dL and 212 mg/dL and 228 mg/dL and 193 mg/dL and 199 mg/dL and 254 mg/dL | Plasma insulin ([1]; oral GTT, 1 mg/kg, 30 min): 0.30 ng/mL and 0.44 ng/mL and 0.25 ng/mL and 0.34 ng/mL and 0.42 ng/mL and 0.33 ng/mL | Blood glucose ([1]; oral GTT, 1 mg/kg, 60 min): 171 mg/dL and 217 mg/dL and 165 mg/dL and 153 mg/dL and 199 mg/dL and 230 mg/dL | Blood glucose ([1]; oral GTT, 1 mg/kg, 90 min): 118 mg/dL and 159 mg/dL and 127 mg/dL and 138 mg/dL and 142 mg/dL and 153 mg/dL | Blood glucose ([1]; oral GTT, 1 mg/kg, 120 min): 106 mg/dL and 119 mg/dL and 109 mg/dL and 124 mg/dL and 132 mg/dL | Blood glucose AUC ([1]; oral GTT, 3 mg/kg): 360 and 323 and 398 and 316 and 320 and 374 | Plasma insulin AUC ([1]; oral GTT, 3 mg/kg): 0.28 and 0.40 and 0.34 and 0.29 and 0.31 | Blood glucose ([1]; oral GTT, 3 mg/kg, 0 min): 104 mg/dL and 117 mg/dL and 90 mg/dL | Blood glucose ([1]; oral GTT, 3 mg/kg, 15 min): 263 mg/dL and 240 mg/dL and 249 mg/dL and 228 mg/dL | Plasma insulin ([1]; oral GTT, 3 mg/kg, 15 min): 0.51 ng/mL and 0.58 ng/mL and 0.65 ng/mL and 0.53 ng/mL | Blood glucose ([1]; oral GTT, 3 mg/kg, 30 min): 228 mg/dL and 164 mg/dL and 233 mg/dL and 181 mg/dL | Plasma insulin ([1]; oral GTT, 3 mg/kg, 30 min): 0.28 ng/mL and 0.30 ng/mL and 0.37 ng/mL and 0.39 ng/mL and 0.26 ng/mL | Blood glucose ([1]; oral GTT, 3 mg/kg, 60 min): 161 mg/dL and 142 mg/dL and 202 mg/dL and 152 mg/dL | Blood glucose ([1]; oral GTT, 3 mg/kg, 90 min): 132 mg/dL and 126 mg/dL and 148 mg/dL and 100 mg/dL | Blood glucose ([1]; oral GTT, 3 mg/kg, 120 min): 105 mg/dL and 122 mg/dL and 129 mg/dL | Blood glucose ([1]; oral GTT, 3 mg/kg, -15 min): 82 mg/dL and 84 mg/dL and 94 mg/dL and 79 mg/dL | Blood glucose AUC ([1]; oral GTT, 10 mg/kg): 294 and 310 and 309 and 270 and 269 | Plasma insulin AUC ([1]; oral GTT, 10 mg/kg): 0.29 and 0.30 and 0.32 and 0.43 and 0.41 | Plasma insulin ([1]; oral GTT, 10 mg/kg, 15 min): 0.51 ng/mL and 0.50 ng/mL and 0.54 ng/mL and 0.40 ng/mL and 0.68 ng/mL | Plasma insulin ([1]; oral GTT, 10 mg/kg, 30 min): 0.35 ng/mL and 0.28 ng/mL and 0.43 ng/mL and 0.31 ng/mL and 0.46 ng/mL | Blood glucose AUC ([1]; oral GTT, 30 mg/kg): 258 and 200 and 219 and 225 and 241 | Plasma insulin AUC ([1]; oral GTT, 30 mg/kg): 0.21 and 0.30 and 0.35 and 0.22 and 0.34 | Plasma insulin ([1]; oral GTT, 30 mg/kg, 15 min): 0.46 ng/mL and 0.58 ng/mL and 0.48 ng/mL and 0.34 ng/mL | blood glucose levels after oral glucose load (in words) ([1]; oral GTT, given prior to glucose load, Fig. 2c): dose-dependent suppression of rise of the blood glucose levels | compound remaining [2]: 79% | AMPK phosphorylation level [3]: no such change was observed
